Measured values as given in the NIST ThermoML archive (doi:10.1016/j.jct.2015.06.024).
± gives the expanded uncertainty stated by the source.

Test: mn = molality of the nth substance listed, in mol/kg
Conditions: 84.5 kPa, Liquid; for speed of sound: Frequency=3 MHz, Sing-around technique in a fixed-path interferometer; for mass density: Vibrating tube method

CCCO [propan-1-ol] + O
Conditions	mass density, 288.15 K [kg/m3]	mass density, 293.15 K [kg/m3]	mass density, 298.15 K [kg/m3]	mass density, 303.15 K [kg/m3]	mass density, 308.15 K [kg/m3]	speed of sound, 288.15 K [m/s]	speed of sound, 293.15 K [m/s]	speed of sound, 298.15 K [m/s]	speed of sound, 303.15 K [m/s]	speed of sound, 308.15 K [m/s]
m1 = 0.01666	998.928 ± 0.11	998.029 ± 0.11	996.868 ± 0.11	995.468 ± 0.11	993.851 ± 0.11	1467.6 ± 1.2	1483.5 ± 1.2	1497.7 ± 1.2	1509.9 ± 1.2	1520.5 ± 1.2
m1 = 0.03333	998.757 ± 0.11	997.859 ± 0.11	996.698 ± 0.11	995.295 ± 0.11	993.677 ± 0.11	1468.6 ± 1.2	1484.5 ± 1.2	1498.5 ± 1.2	1510.7 ± 1.2	1521.3 ± 1.2
m1 = 0.0494	998.594 ± 0.11	997.697 ± 0.11	996.534 ± 0.11	995.132 ± 0.11	993.506 ± 0.11	1469.5 ± 1.2	1485.4 ± 1.2	1499.3 ± 1.2	1511.5 ± 1.2	1521.9 ± 1.2
m1 = 0.06674	998.419 ± 0.11	997.52 ± 0.11	996.356 ± 0.11	994.954 ± 0.11	993.328 ± 0.11	1470.6 ± 1.2	1486.4 ± 1.2	1500.3 ± 1.2	1512.3 ± 1.2	1522.7 ± 1.2
m1 = 0.08313	998.254 ± 0.11	997.355 ± 0.11	996.19 ± 0.11	994.787 ± 0.11	993.156 ± 0.11	1471.7 ± 1.2	1487.3 ± 1.2	1501.1 ± 1.2	1513.1 ± 1.2	1523.3 ± 1.2
m1 = 0.1002	998.081 ± 0.11	997.18 ± 0.11	996.013 ± 0.11	994.609 ± 0.11	992.983 ± 0.11	1472.7 ± 1.2	1488.3 ± 1.2	1502 ± 1.2	1513.8 ± 1.2	1524 ± 1.2
m1 = 0.134	997.747 ± 0.11	996.843 ± 0.11	995.676 ± 0.11	994.267 ± 0.11	992.634 ± 0.11	1474.8 ± 1.2	1490.1 ± 1.2	1503.6 ± 1.2	1515.4 ± 1.2	1525.4 ± 1.2
m1 = 0.1662	997.429 ± 0.11	996.526 ± 0.11	995.356 ± 0.11	993.945 ± 0.11	992.305 ± 0.11	1476.8 ± 1.2	1491.9 ± 1.2	1505.3 ± 1.2	1516.9 ± 1.2	1526.8 ± 1.2
